In patent US7056936B2, “Synergistic combination” (Altana Pharma AG, priority 1998, dated 2006):

Columns and labels:
[1] = test system: ovalbumin-sensitized/-challenged Brown-Norway rat; test: Late inflammatory airway reaction in the ovalbumin-sensitized/-challenged Brown-Norway rat (BAL); conditions: summary of the table; i.t.; Roflumilast 0.3 μmol/kg, Pumafentrine 3 μmol/kg, Salmeterol 3 pmol/kg [sic]
Procedure: Sensitization was done by simultaneous injection of Bordetella pertussis suspension i.p. and OVA/AHG suspension s.c. on day 1, 14 and 21. 28 days after start of sensitization, conscious Brown-Norway rats were challenged by inhalation of the aerosolized OVA solution for 1 h (˜20 ml/h). Non-challenged, only sensitized animals were used as baseline control. The drugs (thoroughly mixed with lactose) or the placebo control (lactose) were administered intratracheally (i.t.) as dry powders 1 h before OVA-challenge. 48 h later, OVA-challenged or non-challenged animals were anaesthetized and bronchoalveolar lavage (BAL) was performed using 3×4 ml BAL buffer per animal. The number of total cells and eosinophils in the BAL fluid, and the concentration of protein in the cell-free BAL fluid were determined. Drug-induced relative changes were calculated and statistically analyzed by the Jonckheere Terpstra test.

PDE3 = PDE3 inhibition (PDE3/4 IC50); type: biochemical; conditions: first value of PDE3/4 pair
PDE4 = PDE4 inhibition (PDE3/4 IC50); type: biochemical; conditions: second value of PDE3/4 pair

| Structure (SMILES) | effect on cell infiltration and protein accumulation in BAL fluid, in words [1] | IC50 (PDE3) | IC50 (PDE4) |
| --- | --- | --- | --- |
| OCc1cc(C(O)CNCCCCCCOCCCCc2ccccc2)ccc1O (single isomer, unassigned; (+)) [Salmeterol, (+)-4-hydroxy-α^1-[[[6-(4-phenylbutoxy)hexyl]amino]methyl]-1,3-benzenedimethanol] | exhibited inhibitory effects |  |  |
| CCOc1cc2c(cc1OC)C(c1ccc(C(=O)N(C(C)C)C(C)C)cc1)=N[C@@H]1CCN(C)C[C@H]21 [Pumafentrine] | did not show any significant effects | 28 nM | 7 nM |
| O=C(Nc1c(Cl)cncc1Cl)c1ccc(OC(F)F)c(OCC2CC2)c1 [Roflumilast] | did not show any significant effects | > 10000 nM | 0.7 nM |
